Data published in patent US20230203445A1, “HYPOIMMUNOGENIC CELLS” (HEALIOS K.K., priority 2020, published 2023).

System: iCaspase9-introduced cells
Assay: Suicide gene function: cell death induction by rapamycin (CellTiter Glo)
Type: cell-based, human
Conditions: 24 hr
Method: Next, an experiment was conducted to confirm whether the introduced suicide gene is functionable. In order to confirm the function of the suicide gene iCaspase9 introduced into universal donor iPS cells as a safety mechanism, the cell death induction by the addition of rapamycin in vitro was confirmed. In order to evaluate the cell death induction efficiency, CellTiter Glo Assay Kit (Promega) was used to luminescence measure the cell viability based on the amount of ATP, which is an index of cell viability. The above-mentioned iCaspase9-introduced cells (clone B), and iCaspase9-free unedited cells (Parental) were cultured for 24 hr under the condition of each rapamycin concentration (0 nM, 0.003 nM, 0.01 nM, 0.03 nM, 0.1 nM, 0.3 nM, 1 nM) and the viable cell rate was measured.

SMILES: CO[C@H]1C[C@@H]2CC[C@@H](C)[C@@](O)(O2)C(=O)C(=O)N2CCCC[C@H]2C(=O)O[C@H]([C@H](C)C[C@@H]2CC[C@@H](O)[C@H](OC)C2)CC(=O)[C@H](C)/C=C(\C)[C@@H](O)[C@@H](OC)C(=O)[C@H](C)C[C@H](C)/C=C/C=C/C=C/1C [rapamycin]
- rapamycin concentration at which cell death was induced by iCaspase9: ≥ 0.1 nM
